# Results reported in article PMC7558399, “In Vitro Selective Growth-Inhibitory Activities of Phytochemicals, Synthetic Phytochemical Analogs, and Antibiotics against Diarrheagenic/Probiotic Bacteria and Cancer/Normal Intestinal Cells” (Pharmaceuticals, 2020).
# How the values were obtained:
# Assay type in all cases: cell-based
# [1] = tested on: Bifidobacterium adolescentis (DSMZ 20087); experiment: Broth microdilution MIC, B. adolescentis; conditions: DSMZ20087, growth inhibited by ≥80%, read-out: MIC
# [2] = tested on: Caco-2 (ATCC HTB 37) intestinal cancer cells; experiment: MTT cytotoxicity assay, Caco-2; conditions: Homo sapiens, Caco-2, MTT, 72 h; for IC50: read-out: IC50 ± SD; for IC80: read-out: IC80 ± SD (80% inhibitory concentration of proliferation)
# [3] = tested on: Enterococcus faecalis (ATCC 29212); experiment: Broth microdilution MIC, E. faecalis; conditions: ATCC29212, growth inhibited by ≥80%, read-out: MIC
# [4] = tested on: probiotic bacteria (9 strains); experiment: Broth microdilution MIC, probiotic bacteria as a group (mean or range over strains); conditions: mean of 9 strains; >512 replaced with 1024; read-out: x¯ -PB ± SD: mean MIC for probiotic bacteria
# [5] = tested on: Lactobacillus reuteri (CCM 3625); experiment: Broth microdilution MIC, L. reuteri; conditions: Limosilactobacillus reuteri, CCM3625; Lactobacillus reuteri; growth inhibited by ≥80%; read-out: MIC
# [6] = tested on: E. coli 0175:H7 (NCTC 12900); experiment: microbe, parasite or virus in culture; conditions: Escherichia coli, NCTC12900
# [7] = tested on: Clostridium difficile (DSMZ 12056); experiment: microbe, parasite or virus in culture; conditions: Clostridioides difficile, DSMZ12056; Clostridium difficile; […]; read-out: MIC
# [8] = tested on: Bifidobacterium breve (ATCC 15700); experiment: Broth microdilution MIC, B. breve; conditions: ATCC15700, growth inhibited by ≥80%, read-out: MIC
# [9] = tested on: Bacillus cereus (ATCC 14579); experiment: Broth microdilution MIC, B. cereus; conditions: ATCC14579, growth inhibited by ≥80%, median/mode, read-out: MIC
# [10] = tested on: Bacteroides fragilis (ATCC 25285); experiment: Broth microdilution MIC, B. fragilis; conditions: ATCC25285, growth inhibited by ≥80%, read-out: MIC
# [11] = tested on: intestinal cancer cells (HT29 and Caco-2); experiment: MTT cytotoxicity assay, mean for intestinal cancer cells; conditions: for IC80: read-out: x¯ -CC ± SD: mean IC80 for intestinal cancer cells
# [12] = tested on: Yersinia enterocolitica (ATCC 9610); experiment: Broth microdilution MIC, Y. enterocolitica; conditions: ATCC9610, growth inhibited by ≥80%, read-out: MIC
# [13] = tested on: Bifidobacterium longum ssp. longum (DSMZ 20219); experiment: Broth microdilution MIC, B. longum ssp. longum; conditions: DSMZ20219; Bifidobacterium longum ssp. longum; growth inhibited by ≥80%; read-out: MIC
# [14] = tested on: Bifidobacterium bifidum (ATCC 29521); experiment: Broth microdilution MIC, B. bifidum; conditions: ATCC29521, growth inhibited by ≥80%, read-out: MIC
# [15] = tested on: Lactobacillus rhamnosus (CCM 7091); experiment: Broth microdilution MIC, L. rhamnosus; conditions: Lacticaseibacillus rhamnosus, CCM7091; Lactobacillus rhamnosus; growth inhibited by ≥80%; read-out: MIC
# [16] = tested on: Clostridium perfringens (DSMZ 11778); experiment: microbe, parasite or virus in culture; conditions: DSMZ11778
# [17] = tested on: FHs 74 Int (ATCC CCL 241) intestinal normal cells; experiment: MTT cytotoxicity assay, FHs 74 Int; conditions: FHs74Int, 72 h, FHs 74 Int (intestinal normal cells), MTT; for IC50: read-out: IC50 ± SD; for IC80: read-out: IC80 ± SD (80% inhibitory concentration of proliferation)
# [18] = tested on: Escherichia coli (ATCC 25922); experiment: Broth microdilution MIC, E. coli; conditions: ATCC25922, growth inhibited by ≥80%, read-out: MIC
# [19] = tested on: S. enterica ssp. enterica serovar Typhimurium (ATCC 14028); experiment: Broth microdilution MIC, Salmonella Typhimurium; conditions: Salmonella Typhimurium, growth inhibited by ≥80%, read-out: MIC
# [20] = tested on: diarrheagenic bacteria (12 strains); experiment: organism not typed
# [21] = tested on: Bifidobacterium animalis spp. lactis (DSMZ 10140); experiment: Broth microdilution MIC, B. animalis spp. lactis; conditions: DSMZ10140; Bifidobacterium animalis spp. lactis; growth inhibited by ≥80%; read-out: MIC
# [22] = tested on: Salmonella enterica ssp. enterica serovar Enteritidis (ATCC 13076); experiment: Broth microdilution MIC, Salmonella Enteritidis; conditions: Salmonella Enteritidis, growth inhibited by ≥80%, read-out: MIC
# [23] = tested on: Lactobacillus casei (DSMZ 20011); experiment: Broth microdilution MIC, L. casei; conditions: Lacticaseibacillus casei, DSMZ20011; Lactobacillus casei; growth inhibited by ≥80%; read-out: MIC
# [24] = tested on: Shigella flexneri (ATCC 12022); experiment: microbe, parasite or virus in culture; conditions: ATCC12022
# [25] = tested on: HT29 (ATCC HTB 38) intestinal cancer cells; experiment: MTT cytotoxicity assay, HT29; conditions: Homo sapiens, HT-29, HT29, MTT, 72 h; for IC50: read-out: IC50 ± SD; for IC80: read-out: IC80 ± SD (80% inhibitory concentration of proliferation)
# [26] = tested on: Listeria monocytogenes (ATCC 7644); experiment: Broth microdilution MIC, L. monocytogenes; conditions: ATCC7644, growth inhibited by ≥80%, read-out: MIC
# [27] = tested on: Vibrio parahaemolyticus (ATCC 17802); experiment: Broth microdilution MIC, V. parahaemolyticus; conditions: ATCC17802, growth inhibited by ≥80%, read-out: MIC
# [28] = mean of 12 strains, >512 replaced with 1024, read-out: x¯ -DB ± SD: mean MIC for diarrheagenic bacteria
SMILES,MIC [1],IC50 [2],IC80 [2],MIC [3],MIC [4],MIC [5],MIC [6],MIC [7],MIC [8],MIC [9],MIC [10],IC80 [11],MIC [12],MIC [13],MIC [14],MIC [15],MIC [16],IC50 [17],IC80 [17],MIC [18],other results
"O=[N+]([O-])c1ccc(O)c2ncccc12 [NXL, 5-nitroquinolin-8-ol]",16 µg/mL,1.1 ± 0.03 µg/mL,5 ± 1.5 µg/mL,32 µg/mL,20 ± 9 µg/mL,16 µg/mL,32 µg/mL,2 µg/mL,32 µg/mL,4 µg/mL,4 µg/mL,4.4 ± 0.7 µg/mL,8 µg/mL,16 µg/mL,16 µg/mL,16 µg/mL,4 µg/mL,0.4 ± 0.05 µg/mL,0.8 ± 0.05 µg/mL,4 µg/mL,"IC50 ([11]; mean of HT29 and Caco-2, >512 replaced with 1024, read-out: x¯ -CC ± SD: mean IC50 for intestinal cancer cells): 1.8 ± 0.8 µg/mL; MIC [19]: 16 µg/mL; MIC ([20]; B. cereus, clostridial species, E. coli, and S. flexneri, read-out: MICs): 2 to 4 µg/mL; MIC [20, 28]: 12 ± 10 µg/mL; MIC [21]: 32 µg/mL; MIC [22]: 16 µg/mL; MIC [23]: 32 µg/mL; MIC [24]: 2 µg/mL; IC50 [25]: 2.6 ± 0.3 µg/mL; IC80 [25]: 3.7 ± 0.4 µg/mL; MIC [26]: 16 µg/mL; MIC [27]: 8 µg/mL"
"O=C(O)c1ccccc1O [SA, salicylic acid]",> 512 µg/mL,> 512 µg/mL,> 512 µg/mL,> 512 µg/mL,597 ± 336 µg/mL,512 µg/mL,> 512 µg/mL,256 µg/mL,> 512 µg/mL,> 512 µg/mL,128 µg/mL,> 512 µg/mL,> 512 µg/mL,512 µg/mL,> 512 µg/mL,512 µg/mL,> 512 µg/mL,73.2 ± 4.6 µg/mL,207 ± 69 µg/mL,> 512 µg/mL,"x¯ -CC ± SD: mean IC50 for intestinal cancer cells ([11]; mean of HT29 and Caco-2, >512 replaced with 1024): - (Not active (MIC/IC50/80 > 512 μg/mL, the value 1024 μg/mL was used for average calculation)); x¯ -CC ± SD: mean IC50 for intestinal cancer cells ([11]; mean of HT29 and Caco-2, >512 replaced with 1024, listed as salicylic acid): ≥ 253.6 ± 208 µg/mL; MIC [19]: > 512 µg/mL; MIC [20, 28]: 960 ± 212 µg/mL; MIC [21]: 128 µg/mL; MIC [22]: > 512 µg/mL; MIC [23]: 512 µg/mL; MIC [24]: > 512 µg/mL; IC50 [25]: > 512 µg/mL; IC80 [25]: > 512 µg/mL; MIC [26]: > 512 µg/mL; MIC [27]: > 512 µg/mL"
